The results in this text go back to patent US9174979B2, “Phenanthroindolizidine compound and NFκB inhibitor containing same as active ingredient” (KABUSHIKI KAISHA YAKULT HONSHA, priority 2008, dated 2015).

≈ marks a conversion by molar mass, not a printed value. Where two headings read alike, the source gives them in different places.

The test system of data set [1] is human colon cancer SW480 cells. Briefly: Inhibitory action on the proliferation of SW480 cells. It is filed as cell-based. To be noted: 48 hours culture, TetraColor ONE; for IC50: Homo sapiens, SW480. Here is the method: (§1) The action of the phenanthroindolizidine alkaloid compound of the present invention on the proliferation of human colon cancer SW480 cells, HT-29 cells, and human non-small cell lung cancer A549 cells was studied. The SW480 cells were suspended in a 10% FBS/RPMI1640 and then seeded in a 96-well microplate, followed by culturing in 5% CO2 at 37° C. (2000 cells/well). The A549 cells and the HT-29 cells were each suspended in a DMEM medium containing 10% FBS, 100 U/mL penicillin, and 100 μg/mL streptomycin (10% FBS/DMEM) and a DMEM F-12 HAM medium containing 10% FBS, 100 U/mL penicillin, and 100 μg/mL streptomycin (10% FBS/DMEM F12 HAM), and then seeded in 96-well microplates, followed by culturing in 5% CO2 at 37° C. (1000 cells/well). After an overnight culture, the compound of the present invention was added, followed by further culturing for 48 hours (SW480 cells) and 96 hours (A549 cells and HT-29 cells). After culturing, the number of viable cells was counted using TetraColor ONE (Seikagaku Corporation) in accordance with the attached operating procedure. The results were expressed as the concentration of a test compound needed for 50% inhibition of the proliferation of the cells (IC50).

Data set [2] has as its system human colon cancer HT-29 cells. Nature of the data set: Inhibitory action on the proliferation of HT-29 cells. Format: cell-based. The note with it: 96 hours culture, TetraColor ONE; for IC50: Homo sapiens, HT-29. Here is the method:
as §1

The subject of a further data set is mice. Nature of the data set: Animal toxicity test in mice transplanted with Meth A cells. Format: in vivo, mouse. To be noted: intravenous on days 1, 5, 9, observed for three weeks. Here is the method: Also, the toxicity of known phenanthroindolizidine alkaloid compounds in mice, namely (12aS,13S)-6,7-dimethoxy-9,10,11,12,12a,13-hexahydro-9a-aza-cyclopenta[b]triphenylene-3,13-diol (known compound 1; refer to WO01/023384) and (12aS,13S)-3,6,7-trimethoxy-9,10,11,12,12a,13-hexahydro-9a-aza-cyclopenta[b]triphenylene-13-ol (known compound 2; refer to Planta Med., 2002, 68: 186-188), was simultaneously studied. To a control group, a physiological saline solution as a solvent, was administered.

For the next data set, the system named is NFκB. Nature of the data set: NFκB luciferase reporter assay in SW480/NRE-Luc cells stimulated with TNFα. Format: cell-based, human. To be noted: for IC50: Homo sapiens. An excerpt: (§2) The action of the phenanthroindolizidine alkaloid compound of the present invention on the NFκB activity was studied in a luciferase assay. Human colon cancer SW480 cells were transfected with pNFκB-Luc Plasmid (Stratagene), which is a reporter vector in which a five-time tandem repeat of the NFκB responsive element (NRE) is integrated into the upstream of the luciferase gene, using Lipofectamine 2000 (Invitrogen Corporation) in accordance with the attached operating procedure. Subsequently, the cells were cultured in an RPMI1640 medium containing 10% FBS, 100 U/mL penicillin, 100 μg/mL streptomycin, and 0.5 mg/mL G418 to produce SW480 cells having the luciferase gene, the expression of which is regulated by NRE, stably introduced therein (SW480/NRE-Luc cells). Likewise, SW480 cells were transfected with pGL3-Control Vector (Promega Corporation), which is a reporter vector in which the SV40 promoter is integrated into the upstream of the luciferase gene, to produce SW480 cells having the luciferase gene, the expression of which is regulated by the SV40 promoter, stably introduced therein (SW480/SV40-Luc cells). The SW480/NRE-Luc cells or the SW480/SV40-Luc cells were suspended in an RPMI1640 medium containing 10% FBS, 100 U/mL penicillin, and 100 μg/mL streptomycin (10% FBS/RPMI1640), and then seeded in a 96-well microplate, followed by culturing under conditions of 5% CO2 and at 37° C. (5000 cells/well). After an overnight culture, the compound of the present invention was added, followed by culturing for one hour. Further, 50 ng/mL TNFα (Sigma-Aldrich Corporation) was added, followed by culturing for four hours. Subsequently, a Steady-Glo Luciferase Assay reagent (Promega Corporation) was added, and the luminescent intensity was detected by SpectraMax M5e (Molecular Devices, Inc.) to measure the intracellular luciferase activity. It is to be noted that the action of the compound of the present invention on the NFκB activity or the SV40 promoter activity was shown as IC50 values (the concentration of a test compound needed for 50% inhibition of the induction of the luciferase expression).
(In general: In a reporter assay the amount or activity of a reporter protein is the signal.)

A further data set has as its system SV40 promoter. Briefly: SV40 promoter luciferase reporter assay in SW480/SV40-Luc cells. It is filed as cell-based, human. The note with it: for IC50: Homo sapiens.
Text: as §2

Data set [3] has as its system human non-small cell lung cancer A549 cells. Nature of the data set: Inhibitory action on the proliferation of A549 cells. It is filed as cell-based. The note with it: 96 hours culture, TetraColor ONE; for IC50: Homo sapiens, A549. Here is the method:
as §1

The mark [4] stands for this setting: SW480, read-out: NFκB inhibitory activity IC50.
The mark [5] stands for this setting: SW480, read-out: SV40 promoter inhibitory activity IC50.
[6] abbreviates: SW480/NRE-Luc cells, 50 ng/mL TNFα, luciferase expression.
Setting [7] is: SW480/SV40-Luc cells, luciferase expression.

As a reminder, the IC50 is the concentration needed to halve the response being measured. With `COc1cc2c3c(c4ccc(O)cc4c2c(OC)c1OC)[C@H](O)[C@@H]1CCCN1C3.Cl` [Compound 1, (12aS,13S)-5,6,7-trimethoxy-9,10,11,12,12a,13-hexahydro-9a-aza-cyclopenta[b]triphenylene-3,13-diol hydrochloride], the IC50 in data set [1] was 1.97 µg/mL; in data set [2] it was 0.637 µg/mL; in the data set with NFκB (setting [4]) it was 0.668 µg/mL; in the data set with SV40 promoter (setting [5]), greater than 10 µg/mL; in data set [3], 0.56 µg/mL. The Mortality rate in the data set with mice (total dose 25 mg/kg) and with mice (total dose 50 mg/kg) was 0/5 throughout.

On to `COc1cc2c3c(c4ccc(O)cc4c2c(OC)c1OC)[C@@H](O)[C@H]1CCCN1C3.Cl` [Compound 2, (12aR,13R)-5,6,7-trimethoxy-9,10,11,12,12a,13-hexahydro-9a-aza-cyclopenta[b]triphenylene-3,13-diol hydrochloride], for which the IC50 was 0.0036 µg/mL in data set [1]; 0.0047 µg/mL in data set [2]; 0.001 µg/mL in the data set on NFκB (setting [4]); greater than 1 µg/mL with SV40 promoter (setting [5]); 0.0025 µg/mL in data set [3].

As to `Cl.Oc1ccc2c3c(c4ccccc4c2c1)CN1CCC[C@H]1[C@H]3O` [Compound 3, (12aS,13S)-9,10,11,12,12a,13-hexahydro-9a-aza-cyclopenta[b]triphenylene-3,13-diol hydrochloride], the half-maximal inhibitory concentration (IC50) was 0.405 µg/mL in data set [1]; 0.14 µg/mL in data set [2]; 0.173 µg/mL with NFκB (setting [4]); greater than 10 µg/mL in the data set on SV40 promoter (setting [5]); 0.107 µg/mL in data set [3]. Besides, the Mortality rate in the data set with mice (total dose 25 mg/kg) and in the data set with mice (total dose 50 mg/kg) was 0/5 each time.

Take `Cl.Oc1ccc2c3c(c4ccc(F)cc4c2c1)CN1CCC[C@H]1[C@H]3O` [Compound 4, (12aS,13S)-6-fluoro-9,10,11,12,12a,13-hexahydro-9a-aza-cyclopenta[b]triphenylene-3,13-diol hydrochloride]: the IC50 is 0.503 µg/mL in data set [1]; 0.218 µg/mL in data set [2]; 0.286 µg/mL in the data set on NFκB (setting [4]); greater than 10 µg/mL in the data set with SV40 promoter (setting [5]); 0.152 µg/mL in data set [3].

With `COc1cc2c3c(c4ccc(O)cc4c2cc1OC)C(N)[C@@H]1CCCN1C3.Cl` (stereo partly drawn) [Compound 7, (S)-13-amino-6,7-dimethoxy-9,10,11,12,12a,13-hexahydro-9a-aza-cyclopenta[b]triphenylene-3-ol hydrochloride], the IC50 in data set [1] was 2.34 µg/mL; in data set [2], 0.243 µg/mL; in the data set with NFκB (setting [4]), 0.468 µg/mL; in the data set on SV40 promoter (setting [5]), greater than 10 µg/mL; in data set [3], 0.265 µg/mL.

With `CCOc1cc2c3c(c4ccc(O)cc4c2cc1OCC)C[C@@H]1CCCN1C3.Cl` [Compound 14, (S)-6,7-diethoxy-9,10,11,12,12a,13-hexahydro-9a-aza-cyclopenta[b]triphenylene-3-ol hydrochloride], the IC50 in data set [1] was 0.0154 µg/mL; in data set [2], 0.0121 µg/mL; in the data set with NFκB (setting [4]), 0.0047 µg/mL; in the data set on SV40 promoter (setting [5]) it was greater than 1 µg/mL; in data set [3] it was 0.0021 µg/mL.

For `COc1cc2c3c(c4ccc(O)c(Cl)c4c2cc1OC)C[C@@H]1CCCN1C3.CS(=O)(=O)O` [Compound 22, (S)-4-chloro-6,7-dimethoxy-9,10,11,12,12a,13-hexahydro-9a-aza-cyclopenta[b]triphenylene-3-ol methanesulfonate], the “SW480 proliferation inhibitory action IC50” value in data set [1] came to 0.60 ng/mL. In data set [2], the “HT-29 proliferation inhibitory action IC50” value is 4.1 ng/mL. Also, the “NFκB inhibitory activity IC50” value in the data set on NFκB (setting [6]) is recorded as 0.41 ng/mL. Besides, the “SV40 promoter inhibitory activity IC50” value in the data set on SV40 promoter (setting [7]) is given as greater than 100 ng/mL. Also, the “A549 proliferation inhibitory action IC50” value in data set [3] was 0.71 ng/mL.

For `COc1cc2c3c(c4cc(C)c(O)c(C)c4c2cc1OC)C[C@@H]1CCCN1C3.CS(=O)(=O)O` [Compound 26, (S)-6,7-dimethoxy-2,4-dimethyl-9,10,11,12,12a,13-hexahydro-9a-aza-cyclopenta[b]triphenylene-3-ol methanesulfonate], in data set [1], the “SW480 proliferation inhibitory action IC50” value was found to be 32.1 ng/mL. The “HT-29 proliferation inhibitory action IC50” value in data set [2] is given as 50.0 ng/mL. Moreover, the “NFκB inhibitory activity IC50” value with NFκB (setting [6]) was found to be 59.7 ng/mL. In addition, the “SV40 promoter inhibitory activity IC50” value in the data set with SV40 promoter (setting [7]) is greater than 10000 ng/mL. For the same compound, the “A549 proliferation inhibitory action IC50” value in data set [3] amounted to 100.2 ng/mL.

For `COc1ccc2c3c(c4cc(OC)c(OC)cc4c2c1)CN1CCC[C@H]1[C@H]3O` [Known Compound 2, (12aS,13S)-3,6,7-trimethoxy-9,10,11,12,12a,13-hexahydro-9a-aza-cyclopenta[b]triphenylene-13-ol, reference compound], the Mortality rate is reported as 2/5 in the data set on mice (total dose 25 mg/kg, 25 mg/kg); “some of the mice also died” with mice (total dose 25 mg/kg, listed as known compound 2, 25 mg/kg); 5/5 with mice (total dose 50 mg/kg, 50 mg/kg); “all the mice died” in the data set on mice (total dose 50 mg/kg, listed as known compound 2, 50 mg/kg).

As to `COc1cc2c3c(c4ccc(O)cc4c2cc1OC)[C@H](O)[C@@H]1CCCN1C3` [Known compound 1, (12aS,13S)-6,7-dimethoxy-9,10,11,12,12a,13-hexahydro-9a-aza-cyclopenta[b]triphenylene-3,13-diol, reference compound], the Mortality rate was 0/5 with mice (total dose 25 mg/kg); 5/5 in the data set on mice (total dose 50 mg/kg, 50 mg/kg); “all the mice died” with mice (total dose 50 mg/kg, listed as known compound 1, 50 mg/kg).

Consider `S=C(S)N1CCCC1` [PDTC, pyrrolidine dithiocarbamate, reference compound], for which the concentration for half-maximal inhibition (IC50) is 2.4 µg/mL (≈ 16.3 µM) in the data set with NFκB (SW480/NRE-Luc cells, 50 ng/mL TNFα, luciferase expression, read-out: NFκB inhibitory activity IC50) and greater than 10 µg/mL with SV40 promoter (SW480/SV40-Luc cells, luciferase expression, read-out: SV40 promoter inhibitory activity IC50).

Consider “(S)-2-chloro-6,7-dimethoxy-9,10,11,12,12a,13-hexahydro-9a-aza-cyclopenta[b]triphenylene-3-ol methanesulfonate [Compound 21]”, for which the “SW480 proliferation inhibitory action IC50” value in data set [1] is listed as 6.7 ng/mL. In addition, in data set [2], the “HT-29 proliferation inhibitory action IC50” value is recorded as 6.8 ng/mL. Also, the “NFκB inhibitory activity IC50” value in the data set with NFκB (setting [6]) is given as 5.4 ng/mL. Moreover, the “SV40 promoter inhibitory activity IC50” value in the data set on SV40 promoter (setting [7]) is greater than 1000 ng/mL. For the same compound, the “A549 proliferation inhibitory action IC50” value in data set [3] is recorded as 8.0 ng/mL.

As for “(S)-2-fluoro-6,7-dimethoxy-9,10,11,12,12a,13-hexahydro-9a-aza-cyclopenta[b]triphenylene-3-ol methanesulfonate [Compound 25]”, in data set [1], the “SW480 proliferation inhibitory action IC50” value is 3.1 ng/mL. Besides, the “HT-29 proliferation inhibitory action IC50” value in data set [2] is 7.0 ng/mL. Further, in the data set with NFκB (setting [6]), the “NFκB inhibitory activity IC50” value is given as 1.6 ng/mL. The “SV40 promoter inhibitory activity IC50” value with SV40 promoter (setting [7]) is reported as greater than 1000 ng/mL. The “A549 proliferation inhibitory action IC50” value in data set [3] worked out at 2.6 ng/mL.
